Results as given in ChEMBL document CHEMBL4725397, “SAR study of bisamides as cyclophilin a inhibitors for the development of host-targeting therapy for hepatitis C virus infection” (Bioorg Med Chem, 2020).

Key:
[1] = target: Peptidyl-prolyl cis-trans isomerase A (Homo sapiens, UniProt P62937); assay: Binding affinity to Cyclophilin A (unknown origin) by surface plasmon resonance analysis
[2] = Cytotoxicity against human Huh7.5 cells assessed as decrease in cell viability after 3 days by MTT assay; assay type: cell-based; settings: time 3 day
[3] = Selectivity index, ratio of CC50 for human Huh7.5 cells to EC50 for genotype 2a HCV JFH-1 infected in human Huh7.5 cells; assay type: toxicity, cell-based
Hepatitis C virus = assay: Antiviral activity against 0.05 MOI HCV JFH-1 infected in human Huh7.5 assessed as suppression of viral replication after 4 days post-infection by western blot analysis; assay type: functional, organism-based; settings: Hepacivirus hominis, time 4.0 day
[4] = Antiviral activity against HCV genotype 2a JFH-1 infected in human Huh7.5 cells after 3 days by renilla luciferase reporter gene assay; assay type: functional, cell-based, Hepatitis C virus subtype 2a; settings: Hepatitis C virus, JFH-1, Huh7.5, 72 h

Peptidyl-prolyl cis-trans isomerase A, sequence (P62937 whole entry): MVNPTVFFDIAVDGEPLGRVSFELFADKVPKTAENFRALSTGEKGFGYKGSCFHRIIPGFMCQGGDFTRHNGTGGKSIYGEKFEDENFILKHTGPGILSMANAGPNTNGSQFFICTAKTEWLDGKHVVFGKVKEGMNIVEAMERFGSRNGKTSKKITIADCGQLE

| Compound | Kd [1] [µM] | CC50 at 72 h [2] [µM] | selectivity ratio [3] | Activity (Hepatitis C virus) | EC50 [4] [µM] |
| --- | --- | --- | --- | --- | --- |
| CC(C)c1ccc(N(C(=O)Cc2c[nH]c3ccccc23)C(C(=O)NC2CCCCC2)c2ccc([N+](=O)[O-])cc2)cc1 (centres undefined) | 4.6 | – | – | – | – |
| COc1ccc(CCN(C(=O)Cc2c[nH]c3ccccc23)C(C(=O)NC2CCCCC2)c2ccc([N+](=O)[O-])cc2)cc1OC (centres undefined) | – | > 100 | > 23.8 | Dose-dependent effect | 4.2 |
| COc1ccc(CCN(C(=O)Cc2c[nH]c3ccccc23)C(C(=O)NC2CCCCC2)c2cc(OC)c(OC)c(OC)c2)cc1OC (centres undefined) | – | > 100 | – | – | 5.3 |
| COc1ccc(N(C(=O)Cc2c[nH]c3ccccc23)C(C(=O)NC2CCCCC2)c2ccc([N+](=O)[O-])cc2)cc1OC (centres undefined) | – | 57.6 | 18 | – | 3.2 |
| COc1ccc(CCN(C(=O)c2cc3ccccc3[nH]2)C(C(=O)NC2CCCCC2)c2ccc([N+](=O)[O-])cc2)cc1OC (centres undefined) | – | > 100 | > 3.1 | – | 31.9 |
| O=C(NC1CCCCC1)C(c1ccc([N+](=O)[O-])cc1)N(C(=O)Cc1c[nH]c2ccccc12)c1ccc(Br)cc1 (centres undefined) | – | 13.8 | 2.2 | – | 6.3 |
| COc1cccc(CCN(C(=O)Cc2c[nH]c3ccccc23)C(C(=O)NC2CCCCC2)c2ccc([N+](=O)[O-])cc2)c1 (centres undefined) | – | 27.6 | – | – | > 27.6 |
| COc1cc(C(C(=O)NC2CCCCC2)N(C(=O)Cc2c[nH]c3ccccc23)c2ccc(C(C)C)cc2)cc(OC)c1OC (centres undefined) | – | > 100 | – | – | 5.2 |
| COc1ccc(N(C(=O)Cc2c[nH]c3ccccc23)C(C(=O)NC2CCCCC2)c2ccc([N+](=O)[O-])cc2)cc1 (centres undefined) | – | 8.5 | 3.4 | – | 2.5 |
| O=C(NC1CCCCC1)C(c1ccc([N+](=O)[O-])cc1)N(C(=O)Cc1c[nH]c2ccccc12)c1ccccc1 (centres undefined) | – | 11.9 | 2 | – | 6 |
| COc1ccc(CN(C(=O)Cc2c[nH]c3ccccc23)C(C(=O)NC2CCCCC2)c2ccc([N+](=O)[O-])cc2)cc1 (centres undefined) | – | 56.3 | – | – | > 56.3 |
| COc1ccc(N(C(=O)c2cc3ccccc3[nH]2)C(C(=O)NC2CCCCC2)c2ccc([N+](=O)[O-])cc2)cc1OC (centres undefined) | – | > 100 | > 24.5 | Dose-dependent effect | 4.1 |
| CCCCCNC(=O)C(c1ccc([N+](=O)[O-])cc1)N(C(=O)Cc1c[nH]c2ccccc12)c1ccc(Br)cc1 (centres undefined) | – | 7 | – | – | > 7 |
| NC(=O)c1ncn([C@@H]2O[C@H](CO)[C@@H](O)[C@H]2O)n1 [RIBAVIRIN] | – | > 100 | > 6.1 | – | 16.3 |
| COc1cccc(CCN(C(=O)c2cc3ccccc3[nH]2)C(C(=O)NC2CCCCC2)c2ccc([N+](=O)[O-])cc2)c1 (centres undefined) | – | 43.1 | 1.9 | – | 22.2 |
| COc1ccc(CCC(=O)N(c2ccc(Br)cc2)C(C(=O)NC2CCCCC2)c2ccc([N+](=O)[O-])cc2)cc1 (centres undefined) | – | 9.8 | – | – | 6.1 |
| CC(C)(C)NC(=O)C(c1ccc([N+](=O)[O-])cc1)N(C(=O)Cc1c[nH]c2ccccc12)c1ccc(Br)cc1 (centres undefined) | – | 7 | – | – | > 7 |
